Assay results: patent US10004701B2, “Methods and compositions for treating infection” (UNIVERSITY OF ROCHESTER, priority 2012, dated 2018)
Structures can show the parent of a compound that is named as a salt. Where two headings read alike, the source gives them in different places.

Tests used:
Assay in all cases: AK assay 384-well format, Prestwick library screening
P. aeruginosa = type: cell-based, Pseudomonas aeruginosa; settings: 50 μM final drug concentration; for fold induction at 50 µM: Pseudomonas aeruginosa, 3 h
[1] = system: S. aureus strain USA300-0114; type: cell-based, Staphylococcus aureus; settings: 50 μM final drug concentration; for fold induction at 50 µM: Staphylococcus aureus, USA300, 3 h
[2] = system: A. baumannii strain 98-37-09; type: cell-based, Acinetobacter baumannii; settings: 50 μM final drug concentration; for fold induction at 50 µM: Acinetobacter baumannii, 983709, 3 h
E. cloacae = type: cell-based, Enterobacter cloacae; settings: 50 μM final drug concentration; for fold induction at 50 µM: Enterobacter cloacae, 3 h
E. faecium = type: cell-based, Enterococcus faecium; settings: 50 μM final drug concentration; for fold induction at 50 µM: Enterococcus faecium, 3 h
K. pneumoniae = type: cell-based, Klebsiella pneumoniae; settings: 50 μM final drug concentration; for fold induction at 50 µM: Klebsiella pneumoniae, 3 h
E. coli = type: cell-based, Escherichia coli; settings: 50 μM final drug concentration; for fold induction at 50 µM: Escherichia coli, 3 h
[3] = planktonic, cutoff for positive 3-fold increase, read-out: AK-based Prestwick Library Screening Results, P. aeruginosa (fold increase in extracellular AK activity)
[4] = planktonic, cutoff for positive 3-fold increase, read-out: AK-based Prestwick Library Screening Results, S. aureus (fold increase in extracellular AK activity)
[5] = planktonic, cutoff for positive 3-fold increase, read-out: AK-based Prestwick Library Screening Results, A. baumannii (fold increase in extracellular AK activity)
[6] = planktonic, cutoff for positive 3-fold increase, read-out: AK-based Prestwick Library Screening Results, E. cloacae (fold increase in extracellular AK activity)
[7] = planktonic, cutoff for positive 3-fold increase, read-out: AK-based Prestwick Library Screening Results, E. faecium (fold increase in extracellular AK activity)
[8] = planktonic, cutoff for positive 3-fold increase, read-out: AK-based Prestwick Library Screening Results, K. pneumoniae (fold increase in extracellular AK activity)
[9] = planktonic, cutoff for positive 3-fold increase, read-out: AK-based Prestwick Library Screening Results, E. coli (fold increase in extracellular AK activity)
[10] = planktonic P. aeruginosa, 384-well, cutoff for positive-scoring molecules 3-fold increase, read-out: AK-based Prestwick Library Screening Results: P. aeruginosa (increase in extracellular AK activity)
[11] = planktonic S. aureus, 384-well, cutoff for positive-scoring molecules 3-fold increase, read-out: AK-based Prestwick Library Screening Results: S. aureus (increase in extracellular AK activity)
[12] = planktonic A. baumannii, 384-well, cutoff for positive-scoring molecules 3-fold increase, read-out: AK-based Prestwick Library Screening Results: A. baumannii (increase in extracellular AK activity)
[13] = planktonic E. cloacae, 384-well, cutoff for positive-scoring molecules 3-fold increase, read-out: AK-based Prestwick Library Screening Results: E. cloacae (increase in extracellular AK activity)
[14] = planktonic E. faecium, 384-well, cutoff for positive-scoring molecules 3-fold increase, read-out: AK-based Prestwick Library Screening Results: E. faecium (increase in extracellular AK activity)
[15] = planktonic K. pneumoniae, 384-well, cutoff for positive-scoring molecules 3-fold increase, read-out: AK-based Prestwick Library Screening Results: K. pneumoniae (increase in extracellular AK activity)
[16] = planktonic E. coli, 384-well, cutoff for positive-scoring molecules 3-fold increase, read-out: AK-based Prestwick Library Screening Results: E. coli (increase in extracellular AK activity)

## CCS(=O)(=O)CCn1c([N+](=O)[O-])cnc1C [Tinidazole]
P. aeruginosa; planktonic, cutoff for positive-scoring molecules 3-fold increase, read-out: AK-based Prestwick Library Screening Results, P. aeruginosa (fold increase in extracellular AK activity)
  fold induction at 50 µM: 1.1
[1]; planktonic, cutoff for positive-scoring molecules 3-fold increase, read-out: AK-based Prestwick Library Screening Results, S. aureus (fold increase in extracellular AK activity)
  fold induction at 50 µM: 1.2
[2]; planktonic, cutoff for positive-scoring molecules 3-fold increase, read-out: AK-based Prestwick Library Screening Results, A. baumannii (fold increase in extracellular AK activity)
  fold induction at 50 µM: 1
E. cloacae; planktonic, cutoff for positive-scoring molecules 3-fold increase, read-out: AK-based Prestwick Library Screening Results, E. cloacae (fold increase in extracellular AK activity)
  fold induction at 50 µM: 1.5
E. faecium; planktonic, cutoff for positive-scoring molecules 3-fold increase, read-out: AK-based Prestwick Library Screening Results, E. faecium (fold increase in extracellular AK activity)
  fold induction at 50 µM: 0.9
K. pneumoniae; planktonic, cutoff for positive-scoring molecules 3-fold increase, read-out: AK-based Prestwick Library Screening Results, K. pneumoniae (fold increase in extracellular AK activity)
  fold induction at 50 µM: 0.8
E. coli; planktonic, cutoff for positive-scoring molecules 3-fold increase, read-out: AK-based Prestwick Library Screening Results, E. coli (fold increase in extracellular AK activity)
  fold induction at 50 µM: 1.2

## NC[C@H]1O[C@H](O[C@H]2[C@H](O)[C@@H](O[C@H]3O[C@H](CO)[C@@H](O)[C@H](N)[C@H]3O)[C@H](N)C[C@@H]2N)[C@H](N)C[C@@H]1O [Tobramycin]
P. aeruginosa; [3]
  fold induction at 50 µM: 17.1
[1]; [4]
  fold induction at 50 µM: 1.1
[2]; [5]
  fold induction at 50 µM: 5.7
E. cloacae; [6]
  fold induction at 50 µM: 1.5
E. faecium; [7]
  fold induction at 50 µM: 0.9
K. pneumoniae; [8]
  fold induction at 50 µM: 2
E. coli; [9]
  fold induction at 50 µM: 7.5

## Cc1cccc(C)c1NC(=O)C(C)N (stereo not shown) [Tocainide hydrochloride]
P. aeruginosa; planktonic P. aeruginosa, positive cutoff 3-fold increase, read-out: AK-based Prestwick library screening result, P. aeruginosa (fold increase in extracellular AK activity)
  fold induction at 50 µM: 1.1
[1]; planktonic S. aureus, positive cutoff 3-fold increase, read-out: AK-based Prestwick library screening result, S. aureus (fold increase in extracellular AK activity)
  fold induction at 50 µM: 1.1
[2]; planktonic A. baumannii, positive cutoff 3-fold increase, read-out: AK-based Prestwick library screening result, A. baumannii (fold increase in extracellular AK activity)
  fold induction at 50 µM: 1.6
E. cloacae; planktonic E. cloacae, positive cutoff 3-fold increase, read-out: AK-based Prestwick library screening result, E. cloacae (fold increase in extracellular AK activity)
  fold induction at 50 µM: 1.4
E. faecium; planktonic E. faecium, positive cutoff 3-fold increase, read-out: AK-based Prestwick library screening result, E. faecium (fold increase in extracellular AK activity)
  fold induction at 50 µM: 1
K. pneumoniae; planktonic K. pneumoniae, positive cutoff 3-fold increase, read-out: AK-based Prestwick library screening result, K. pneumoniae (fold increase in extracellular AK activity)
  fold induction at 50 µM: 1.1
E. coli; planktonic E. coli, positive cutoff 3-fold increase, read-out: AK-based Prestwick library screening result, E. coli (fold increase in extracellular AK activity)
  fold induction at 50 µM: 1.2

## Cc1c(C)c2c(c(C)c1O)CC[C@@](C)(CCC[C@H](C)CCC[C@H](C)CCCC(C)C)O2 [Tocopherol (R,S)]
P. aeruginosa; planktonic P. aeruginosa, 384-well, cutoff for positive-scoring molecules 3-fold increase
  AK-based Prestwick Library Screening Results: P. aeruginosa (increase in extracellular AK activity): 0.4
[1]; planktonic S. aureus, 384-well, cutoff for positive-scoring molecules 3-fold increase
  AK-based Prestwick Library Screening Results: S. aureus (increase in extracellular AK activity): 0.4
[2]; planktonic A. baumannii, 384-well, cutoff for positive-scoring molecules 3-fold increase
  AK-based Prestwick Library Screening Results: A. baumannii (increase in extracellular AK activity): 0.4
E. cloacae; planktonic E. cloacae, 384-well, cutoff for positive-scoring molecules 3-fold increase
  AK-based Prestwick Library Screening Results: E. cloacae (increase in extracellular AK activity): 0.4
E. faecium; planktonic E. faecium, 384-well, cutoff for positive-scoring molecules 3-fold increase
  AK-based Prestwick Library Screening Results: E. faecium (increase in extracellular AK activity): 0.9
K. pneumoniae; planktonic K. pneumoniae, 384-well, cutoff for positive-scoring molecules 3-fold increase
  AK-based Prestwick Library Screening Results: K. pneumoniae (increase in extracellular AK activity): 0.4
E. coli; planktonic E. coli, 384-well, cutoff for positive-scoring molecules 3-fold increase
  AK-based Prestwick Library Screening Results: E. coli (increase in extracellular AK activity): 0.6

## CCOC(=O)NNc1nncc2ccccc12 [Todralazine hydrochloride]
P. aeruginosa; [10]
  fold induction at 50 µM: 1.1
[1]; [11]
  fold induction at 50 µM: 1.3
[2]; [12]
  fold induction at 50 µM: 1.1
E. cloacae; [13]
  fold induction at 50 µM: 1.7
E. faecium; [14]
  fold induction at 50 µM: 0.8
K. pneumoniae; [15]
  fold induction at 50 µM: 1
E. coli; [16]
  fold induction at 50 µM: 1.3

## Cc1ccc(S(=O)(=O)NC(=O)NN2CCCCCC2)cc1 [Tolazamide]
P. aeruginosa; [3]
  fold induction at 50 µM: 1.4
[1]; [4]
  fold induction at 50 µM: 1
[2]; [5]
  fold induction at 50 µM: 1.2
E. cloacae; [6]
  fold induction at 50 µM: 1.6
E. faecium; [7]
  fold induction at 50 µM: 1
K. pneumoniae; [8]
  fold induction at 50 µM: 1.4
E. coli; [9]
  fold induction at 50 µM: 1.5

## c1ccc(CC2=NCCN2)cc1 [Tolazoline hydrochloride]
P. aeruginosa; [10]
  fold induction at 50 µM: 1.1
[1]; [11]
  fold induction at 50 µM: 1.2
[2]; [12]
  fold induction at 50 µM: 1.3
E. cloacae; [13]
  fold induction at 50 µM: 1.5
E. faecium; [14]
  fold induction at 50 µM: 1
K. pneumoniae; [15]
  fold induction at 50 µM: 1
E. coli; [16]
  fold induction at 50 µM: 1.4

## CCCCNC(=O)NS(=O)(=O)c1ccc(C)cc1 [Tolbutamide]
P. aeruginosa; 384-well format, cutoff for positive-scoring molecules 3-fold increase, read-out: AK-based Prestwick Library Screening Results, P. aeruginosa (increase in extracellular AK activity)
  fold induction at 50 µM: 0.9
[1]; 384-well format, cutoff for positive-scoring molecules 3-fold increase, read-out: AK-based Prestwick Library Screening Results, S. aureus (increase in extracellular AK activity)
  fold induction at 50 µM: 0.7
[2]; 384-well format, cutoff for positive-scoring molecules 3-fold increase, read-out: AK-based Prestwick Library Screening Results, A. baumannii (increase in extracellular AK activity)
  fold induction at 50 µM: 0.9
E. cloacae; 384-well format, cutoff for positive-scoring molecules 3-fold increase, read-out: AK-based Prestwick Library Screening Results, E. cloacae (increase in extracellular AK activity)
  fold induction at 50 µM: 1
E. faecium; 384-well format, cutoff for positive-scoring molecules 3-fold increase, read-out: AK-based Prestwick Library Screening Results, E. faecium (increase in extracellular AK activity)
  fold induction at 50 µM: 1
K. pneumoniae; 384-well format, cutoff for positive-scoring molecules 3-fold increase, read-out: AK-based Prestwick Library Screening Results, K. pneumoniae (increase in extracellular AK activity)
  fold induction at 50 µM: 0.8
E. coli; 384-well format, cutoff for positive-scoring molecules 3-fold increase, read-out: AK-based Prestwick Library Screening Results, E. coli (increase in extracellular AK activity)
  fold induction at 50 µM: 0.8

## Cc1c(Cl)cccc1Nc1ccccc1C(=O)O [Tolfenamic acid]
P. aeruginosa; [10]
  fold induction at 50 µM: 1.2
[1]; [11]
  fold induction at 50 µM: 0.5
[2]; [12]
  fold induction at 50 µM: 1.4
E. cloacae; [13]
  fold induction at 50 µM: 1.6
E. faecium; [14]
  fold induction at 50 µM: 1.1
K. pneumoniae; [15]
  fold induction at 50 µM: 0.8
E. coli; [16]
  fold induction at 50 µM: 1

## Cc1ccc(C(=O)c2ccc(CC(=O)O)n2C)cc1 [Tolmetin sodium salt dihydrate]
P. aeruginosa; cutoff for positive-scoring molecules 3-fold increase, read-out: AK-based Prestwick Library Screening Results, P. aeruginosa (fold increase in extracellular AK activity)
  fold induction at 50 µM: 1
[1]; cutoff for positive-scoring molecules 3-fold increase, read-out: AK-based Prestwick Library Screening Results, S. aureus (fold increase in extracellular AK activity)
  fold induction at 50 µM: 0.9
[2]; cutoff for positive-scoring molecules 3-fold increase, read-out: AK-based Prestwick Library Screening Results, A. baumannii (fold increase in extracellular AK activity)
  fold induction at 50 µM: 0.8
E. cloacae; cutoff for positive-scoring molecules 3-fold increase, read-out: AK-based Prestwick Library Screening Results, E. cloacae (fold increase in extracellular AK activity)
  fold induction at 50 µM: 2
E. faecium; cutoff for positive-scoring molecules 3-fold increase, read-out: AK-based Prestwick Library Screening Results, E. faecium (fold increase in extracellular AK activity)
  fold induction at 50 µM: 0.8
K. pneumoniae; cutoff for positive-scoring molecules 3-fold increase, read-out: AK-based Prestwick Library Screening Results, K. pneumoniae (fold increase in extracellular AK activity)
  fold induction at 50 µM: 0.6
E. coli; cutoff for positive-scoring molecules 3-fold increase, read-out: AK-based Prestwick Library Screening Results, E. coli (fold increase in extracellular AK activity)
  fold induction at 50 µM: 0.9
